# Values of other authors in patent US20140296155A1, “ANTI-STRETCH MARK SKIN CREAM AND METHOD FOR MAKING AND USING THEREOF” (priority 2011, published 2014).
# Tested on: Type 1 and Type 3 collagen
structure (smiles),measurement,value
"O=C1O[C@H]([C@@H](O)CO)C(O)=C1O [Vitamin C, Ascorbic Acid]",collagen formation over control levels,3-4 fold
